{"source": "patent US7449567B2", "about": "“Isolation and identification of mouse and human transcription control elements associated with cytochrome expression” (Xenogen Corporation, priority 2001, dated 2008)", "key": {"hPXR": {"molecular_target": "T1, hPXR (Homo sapiens, UniProt O75469)", "T1 sequence (O75469 1-434)": "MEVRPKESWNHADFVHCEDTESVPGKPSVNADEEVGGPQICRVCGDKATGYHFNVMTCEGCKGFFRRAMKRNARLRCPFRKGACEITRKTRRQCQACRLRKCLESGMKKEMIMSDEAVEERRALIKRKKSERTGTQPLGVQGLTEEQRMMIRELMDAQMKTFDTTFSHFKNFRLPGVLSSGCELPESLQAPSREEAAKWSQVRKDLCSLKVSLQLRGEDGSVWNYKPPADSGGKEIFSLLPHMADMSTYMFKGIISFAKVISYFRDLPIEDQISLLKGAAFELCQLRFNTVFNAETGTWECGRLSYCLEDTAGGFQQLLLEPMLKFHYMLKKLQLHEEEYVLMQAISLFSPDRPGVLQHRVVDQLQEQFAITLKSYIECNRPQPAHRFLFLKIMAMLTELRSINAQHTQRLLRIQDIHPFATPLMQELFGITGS", "conditions": "cited from earlier work"}, "[1]": {"system": "CYP3A4-luc transgene (13 kb human CYP3A4 promoter)", "conditions": "mouse, in vivo", "experimental": "General methods for evaluating the animal lines were as follows. Tg founders were bred to wild-type FvB mice to generate F1 mice. A female transgenic founder was bred to a wild-type FvB male and a male transgenic founder was bred to a few wild-type FvB females.\nA Luciferin stock solution of 30 mg/ml was prepared in sterile PBS.\nThe route of administration for the drugs and for luciferin was IP. The dose of reagent administration of luciferin substrate and drugs was as follows. Dose of luciferin: 150 mg/kg of a 30 mg/ml luciferin stock was injected IP five minutes before imaging in the IVIS™ (Xenogen Corporation, Alameda, Calif.) system. […] DMSO was administrated as a vehicle control.\nFollowing luciferin administration the animals were anesthetized using gas anesthesia (Isoflurane) and placed in an IVIS™ box (Xenogen Corporation, Alameda, Calif.) for imaging. All animals were imaged before and after chemical administration, and imaged at high resolution (binning 2) for 10 seconds or 1 minute, for males and females, respectively.\nNT is the non-treated control. Before each imaging session, mice were injected i.p. with 150 mg/kg luciferin. […] Measurements on each mouse were performed as described above. […] Measurements on each mouse were performed as described above."}, "[2]": {"conditions": "cell culture, Xie et al. 2000, Goodwin et al. 1999"}}, "note": "Where two headings read alike, the source gives them in different places."}
{"smiles": "CCC1(c2ccccc2)C(=O)NC(=O)NC1=O", "note": "[Phenob, phenobarbitol]", "values": [{"measurement": "induction of CYP3A4 expression via hPXR", "setting": "hPXR", "result": "relatively better inducers of CYP3A4 expression"}, {"measurement": "induction of the transgene CYP3A4-luc", "setting": "[1]", "result": "induced the transgene to various degrees"}]}
{"smiles": "Clc1ccccc1C(c1ccccc1)(c1ccccc1)n1ccnc1", "note": "[Clotrim, clotrimazole]", "values": [{"measurement": "induction of CYP3A4 expression via hPXR", "setting": "hPXR; [2]", "result": "relatively better inducers of CYP3A4 expression"}, {"measurement": "induction of the transgene CYP3A4-luc", "setting": "[1]; FVB (CYP3A4-luc transgenic, line #82)", "result": "induced the transgene CYP3A4-luc better than other three compounds"}]}
{"smiles": "CC(=O)[C@H]1[C@H](C#N)C[C@H]2[C@@H]3CC=C4C[C@@H](O)CC[C@]4(C)[C@H]3CC[C@@]21C", "note": "[PCN, 5-pregnene-3b-OL-20-ONE-16a-Carbonitrile]", "values": [{"measurement": "induction of CYP3A4 expression via hPXR", "setting": "hPXR; [2]", "result": "weaker inducers"}, {"measurement": "induction of the transgene CYP3A4-luc", "setting": "[1]", "result": "induced the transgene CYP3A4-luc better than other three compounds"}]}
{"smiles": "CC(=O)[C@H]1CC[C@H]2[C@@H]3CC=C4C[C@@H](O)CC[C@]4(C)[C@H]3CC[C@]12C", "note": "[Preg, pregnenolone]", "values": [{"measurement": "induction of CYP3A4 expression via hPXR", "setting": "hPXR", "result": "weaker inducers"}, {"measurement": "induction of the transgene CYP3A4-luc", "setting": "[1]", "result": "all drugs except for Preg induced the transgene"}]}
